{"source": "patent US5912270A", "about": "“Anti-inflammatory compounds” (SmithKline Beecham Corporation, priority 1996, dated 1999)", "key": {"CoA-IT": {"system": "CoA-IT", "test": "Assay (b): microsomal CoA-IT activity assay", "type": "biochemical, human", "conditions": "U937 microsomes", "source_text": "The following is a method to measure CoA-IT activity and the effects of compounds on CoA-IT activity. The assay is based upon mixing cellular material containing CoA-IT activity with a stable lyso phospholipid such as […] and measuring the production of phospholipid product such as […] occurring in the absence of added CoA or CoA-fatty acids.\nAny inflammatory cell that contains high levels of CoA-IT activity can be used, such as neutrophils, macrophages or cell lines such as U937 cells. […] Cells were grown without differentiation (basal state) by any agent, such as dimethyl sulfoxide. As used herein, \"inflammatory cells\" include, but are not limited to neutrophils, macrophages, monocytes, lymphocytes, eosinophils, basophils, and mast cells.\nMicrosomes were prepared using standard techniques. In this case, cells were washed with a buffer of 250 mM sucrose, 10 mM Tris, 1 mM EGTA, 1 mM MgCl2, pH 7.4 and ruptured by N2 cavitation (750 psi, 10 minutes). The ruptured cells were centrifuged 1000×g, 5 minutes. The resulting supernatant was centrifuged at 20,000×g,~20 minutes. Microsomes were prepared from this supernatant by centrifugation at 100,000×g, 60 minutes. The resulting pellet was washed once with assay buffer (150 mM NaCl, 10 mM Na2 KPO4, 1 mM EGTA, pH 7.4), recentrifuged and the pellet resuspended in assay buffer (4-20 mg protein/ml) and was stored at -80° C. until assayed.\nCoA-IT activity was measured in 1.5 ml centrifuge tubes in a total volume of 100 ul. Microsomes were diluted in assay buffer to the desired protein concentration (6-20 ug/tube). The reaction was initiated by addition of [3H ]1-alkyl-2-lyso-sn-glycero-3-phosphocholine (GPC) (~0.1 uCi/tube) and 1 μM final cold 1-alkyl-2-lyso-GPC in assay buffer with 0.25 mg/ml fatty acid-poor bovine serumalbumin (BSA) (Calbiochem, La Jolla, Calif.). [3H]1-2-alkyl-2-lyso-GPC, approximately 50 Ci/mmol, was from NEN-Dupont (Boston, Mass.) and cold 1-alkyl-2-lyso-GPC was from Biomol (Plymouth Meeting, Pa). Microsomes were pretreated with desired agents for the desired time (10 minutes) before the addition of [3H]1-alkyl-2-lyso-GPC. The reaction was run for the desired time (10 minutes) at 37° C. The reaction was stopped and the lipids extracted by addition of 100 ul of chloroform:methanol (1:2, v/v) followed by 100 ul of chloroform and 100 ul of 1M KCI. The samples were vortexed and centrifuged at high speed in a microfuge for 2-3 minutes. An aliquot of the chloroform-extracted materials were separated, usually by TLC in chloroform/methanol/acetic acid/water (50:25:8:4, v/v), visualized by radioscanning (Bioscan) and the product, [3H] 1-alkyl-2-acyl-GPC, was scraped and quantified by liquid scintillation spectroscopy. […] Other methods can be used to separate substrate from product, including but not limited to column chromatography, affinity chromatography and post reaction derivitization."}, "[1]": {"system": "TPA-induced Mouse Ear Inflammation", "test": "Assay (g): TPA-induced Mouse Ear Inflammation (edema and MPO)", "type": "in vivo", "conditions": "for TPA % change in edema / change in MPO for TPA model / MPO ED50 / edema ED50: topical; for TPA % change in edema / change in MPO for TPA model: doses of 0.2, 0.1 and 0.3 for dexamethasone, scalaradial, WY 50,295 respectively; for MPO ED50 / edema ED50: TPA ear model", "procedure": "(§1) Male Balb/c inbred mice were obtained from Charle River Breeding Laboratories (Kingston, N.Y.). Within a single experiment mice (22-25 g) were age-matched. These in vivo experiments typically involved use of 5-6 animals/group.\nTPA (12-0-tetradecanoylphorbol 13-acetate) (Sigma Chemical Company) in acetone (4 mg/20 ml) was applied to the inner and outer surfaces of the left ear of BALB/c male mice. The thickness of both ears was then measured with a dial micrometer (Mitutoyo, Japan) at both 2 and 4 hours after treatment, and the data expressed as the change in thickness (10^-3 cm) between treated and untreated ears. […] After measuring the edema, the inflammed left ears were removed and stored at -70° C. until they were assayed for MPO (myeloperoxidase) activity where appropriate.\nOn the day of the assay, partially thawed ear tissues were minced and then homogenized (10% w/v) with a Tissumizer homogenizer (Tekmar Co.) in 50 mM phosphate buffer (pH 6) containing 0.5% HTAB. The tissue homogenates were taken through three cycles of freeze-thaw, followed by brief sonication (10 sec). The method of Bradley et al. was used with modifications as described. […] Supernatant MPO activity was quantified kinetically (change in absorbance measured over 3 min, sampled at 15-sec intervals) using a Beckman DU-7 spectrophotometer and a Kinetics Analysis package (Beckman Instruments, Inc.). One unit of MPO activity is defined as that degrading one micromole of peroxide per minute at 25° C.\nStatistical analysis was done using Student's \"t\" test."}, "[2]": {"system": "Arachidonic acid induced ear inflammation", "test": "Assay (h): Arachidonic acid induced ear inflammation assay", "type": "in vivo, mouse", "conditions": "for AA % change in edema / change in MPO for AA: topical, doses of 0.2, 0.1 and 0.3 for dexamethasone, scalaradial, WY 50,295 respectively; for activity in the AA ear model: @ 1 mg", "procedure": "as §1\nArachidonic acid is dissolved in acetone ([…]) to the left ear of BALB/c male mice. The thickness of both ears was measured with a constant pressure thickness guage 1 hour after treatment and the data expressed as the change in thickness between treated and untreated ears. Test compounds or vehicle are given at the time of AA applciation. The inflammatory cell infiltration is measured by MPO activity as described above in the TPA ear edema assay. After the edema measurements are made, the inflamed ears are removed and assayed for MPO activity."}, "human Monocytes": {"system": "human Monocytes", "test": "Assay (f): stimulated eicosanoid release by human monocytes", "type": "cell-based", "conditions": "Monocyte", "procedure": "Human Monocyte Isolation. Leukocyte-rich leukopaks obtained from Biological Specialties (Lansdale, Pa.) were collected from male volunteers who were not talking antiinflammatory drugs. Leukopaks were centrifuged (90×g for 15 min) twice to remove the platelet-rich plasma. The cell pellet was washed by centrifugation and resuspended in HBSS without Ca^2+ or Mg^2+. Histopaque 1077 was layered under the cell suspension and centrifuged at 400×g for 30 min to obtain the buffy coat. The interfacial buffy coat, containing monocytes and lymphocytes, was removed and saved. The buffy coat was washed twice with HBSS without Ca^2+ or Mg^2+ by centrifugation. […]\nMeasurement of Stimuli-Induced Eicosanoid Release. […] (A23187, 1 μM,(15 min). The reaction was terminated by reduction of pH through addition of citric acid and centrifugation (10 min, 400×g, 4° C.). Cell viability was monitored before and after experiments using trypan blue exclusion. The cell-free media was decanted and stored at -70° C. until analyzed. Prostaglandin E2 and LTC4 were directly measured in cell-free media using enzyme immunoassay (EIA) kits purchased from Caymen Chemical Co. (Ann Arbor, Mich.). Sample or standard dilutions were made with appropriate media and analyzed in triplicate. Results were obtained by extrapolation from a standard curve prepared in the media and expressed as pg or ng/ml of sample."}}, "note": "Where a name gives a salt, the structure may show the parent alone. Read-outs that look alike come from different tables or passages of the source."}
{"compound": "O=S1(=O)CCn2c1nc(-c1ccc(F)cc1)c2-c1ccncc1", "note": "[6-(4'-Fluorophenyl)-5-(4-pyridyl)2,3-dihydroimidzo-[2,1-b]thiazole-dioxide]", "values": [{"measurement": "effect on CoA-IT activity", "setting": "CoA-IT; at concentrations up to 100 μM", "value": "no effect"}]}
{"compound": "CN(C)CCC=C1c2ccccc2COc2ccccc21", "note": "[Doxepine]", "values": [{"measurement": "effect on CoA-IT activity", "setting": "CoA-IT; at concentrations up to 100 μM", "value": "did not inhibit"}]}
{"compound": "CCN(CC)CCCC(C)Nc1c2ccc(Cl)cc2nc2ccc(OC)cc12", "note": "(centres unmarked) [quinacrine]", "values": [{"measurement": "effect on CoA-IT activity", "setting": "CoA-IT; at concentrations up to 500 μM", "value": "no effect"}]}
{"compound": "CC(=O)O[C@H]1C[C@@H]2[C@@]3(C)CCCC(C)(C)[C@@H]3CC[C@@]2(C)[C@@H]2CC=C(C=O)[C@H](C=O)[C@@]12C", "note": "[scalaradial]", "values": [{"measurement": "TPA % change in edema", "setting": "[1]", "value": -46, "unit": "%"}, {"measurement": "change in MPO for TPA model", "setting": "[1]", "value": -65}, {"measurement": "AA % change in edema", "setting": "[2]", "value": -11, "unit": "%"}, {"measurement": "change in MPO for AA", "setting": "[2]", "value": -33}]}
{"compound": "COc1ccc2cc([C@H](C)C(=O)O)ccc2c1", "note": "[naproxen]", "values": [{"measurement": "effect on CoA-IT activity", "setting": "CoA-IT; at concentrations up to 100 μM", "value": "no effect"}]}
{"compound": "C[C@@H]1C[C@H]2[C@@H]3CCC4=CC(=O)C=C[C@]4(C)[C@@]3(F)[C@@H](O)C[C@]2(C)[C@@]1(O)C(=O)CO", "note": "[dexamethasone]", "values": [{"measurement": "TPA % change in edema", "setting": "[1]", "value": -50, "unit": "%"}, {"measurement": "change in MPO for TPA model", "setting": "[1]", "value": -54}, {"measurement": "AA % change in edema", "setting": "[2]", "value": -10, "unit": "%"}, {"measurement": "change in MPO for AA", "setting": "[2]", "value": 0}]}
{"compound": "CCC(C)(C)c1ccc(Oc2ccc(C(F)(F)F)cc2NC(=O)Nc2cc(C(F)(F)F)cc(C(F)(F)F)c2)c(S(=O)(=O)O)c1", "note": "[Example 2, 2-[2-[3-[3,5-Bis(trifluoromethyl)phenyl]ureido]-4-trifluoromethylphenoxy]5-(1,1-dimethylpropyl)benzenesulfonic acid, sodium salt]", "values": [{"measurement": "IC50", "setting": "human Monocytes; LTC4 release, A23187, read-out: LTC4 (as an IC50)", "value": 1000, "unit": "nM"}, {"measurement": "IC50", "setting": "human Monocytes; PGE2 release, A23187, read-out: PGE2 (as an IC50)", "value": "> 10000", "unit": "nM"}, {"measurement": "MPO ED50", "setting": "[1]", "value": 0.25, "unit": "mg/ear"}, {"measurement": "edema ED50", "setting": "[1]", "value": 0.87, "unit": "mg/ear"}, {"measurement": "inhibition in these animal models", "setting": "[1]; mouse ear inflammation models (TPA and AA)", "value": "positive inhibition"}, {"measurement": "activity in the AA ear model", "setting": "[2]", "value": -25}]}
{"compound": "CCC(C)(C)c1ccc(Oc2ccc(C(F)(F)F)cc2NC(=O)Nc2ccc(Cl)c(C(F)(F)F)c2)c(S(=O)(=O)O)c1", "note": "[Example 3, 2-[2-[3-(4-Chloro-3-trifluoromethylphenyl)ureido]-4-trifluoromethylphenoxy]-5-(1,1-dimethylpropyl)benzenesulfonic acid, sodium salt]", "values": [{"measurement": "MPO ED50", "setting": "[1]", "value": 0.36, "unit": "mg/ear"}, {"measurement": "edema ED50", "setting": "[1]", "value": 0.32, "unit": "mg/ear"}, {"measurement": "activity in the AA ear model", "setting": "[2]", "value": -22}]}
{"compound": "COc1cccc2c1cc([N+](=O)[O-])c1c(C(=O)O)cc3c(c12)OCO3", "note": "[aristolochic acid]", "values": [{"measurement": "effect on CoA-IT activity", "setting": "CoA-IT; at concentrations up to 500 μM", "value": "no effect"}]}
{"compound": "COc1ccc2c(c1)c(CC(=O)O)c(C)n2C(=O)c1ccc(Cl)cc1", "note": "[indomethicin]", "values": [{"measurement": "effect on CoA-IT activity", "setting": "CoA-IT; at concentrations up to 100 μM", "value": "no effect"}]}
{"compound": "Cc1cc(C(C)(C)C)c(O)c(C(C)(C)C)c1", "note": "[BHT]", "values": [{"measurement": "effect on CoA-IT activity", "setting": "CoA-IT; at concentrations up to 100 μM", "value": "no effect"}]}
{"compound": "CC(C(=O)O)c1ccc2cc(OCc3ccc4ccccc4n3)ccc2c1", "note": "(centres unmarked) [WY 50,295]", "values": [{"measurement": "TPA % change in edema", "setting": "[1]", "value": -18, "unit": "%"}, {"measurement": "change in MPO for TPA model", "setting": "[1]", "value": -36}, {"measurement": "AA % change in edema", "setting": "[2]", "value": -50, "unit": "%"}, {"measurement": "change in MPO for AA", "setting": "[2]", "value": -90}]}
{"compound": "Fc1ccc(-c2nc3n(c2-c2ccncc2)CCS3)cc1", "note": "[6-(4'-Fluorophenyl)-5-(4pyridyl)-2,3-dihydroimidzo-[2,1-b]thiazole]", "values": [{"measurement": "effect on CoA-IT activity", "setting": "CoA-IT; at concentrations up to 100 μM", "value": "no effect"}]}
